Test results as given in patent US11739054B2 (priority 2017, dated 2023).

Key:
Swiss Webster mice [1] = type: in vivo; settings: Example 4; hapten conjugated to TT, 75 μg with 50 μg CpG + 750 μg Alhydrogel/alum, s.c. days 0, 14, 28
Swiss Webster mice [2] = experiment: METH-induced locomotor activity assay in vaccinated mice; type: in vivo; settings: Example 4; vaccinated mice challenged with METH
Method: On day 42, vaccinated mice were assessed in a locomotion assay by acclimating them for 1 h in a plastic cage (10.5 in.×19 in.×8 in.) with clear ventilated acrylic top. Mice were then quickly removed and injected with saline or 0.5, 1, 2, or 4 mg/kg METH before being returned to their cages; cages were wiped down with dry paper towels to remove excess debris while mice were being injected. The mice were then returned to the cage to be recorded and tracked by overhead camera using ANY-Maze video tracking software (Stoelting Co., Wood Dale, Ill.). Sessions were run during the middle of the dark cycle in a 4.6×4.6 m^2 room with a single 30 W upward-directed light source, and then repeated on mice after a two-day washout period until all mice received all MA doses. Distance traveled (m) and time spent immobile (s; 80% pixel consistency for at least 5 s threshold) were measured and analyzed via Prism 6 software, using a two-way repeated-measures ANOVA with Bonferroni posthoc corrected comparisons. Significance was set at a=0.05 and data is represented as mean±SEM.
The mice were monitored for swelling, redness or formation of granulomas at the injection site. The mice were bled on days 21 and 42. The anti-METH IgG antibody titers were determined by ELISA. On day 45, mice were given a 2 mg/kg dose of METH and their locomotor activity was monitored.

Swiss Webster mice [3] = settings: mouse, in vivo, sc

| Compound | anti-METH antibody titers (ELISA) (Swiss Webster mice [1]) | METH-induced locomotor activity (Swiss Webster mice [2]) | immune response (Swiss Webster mice [3]) |
| --- | --- | --- | --- |
| CN[C@@H](CCC(=O)NCCCCCCC(=O)O)Cc1ccccc1 [I-66] | at least comparable to, and possibly greater than, the MH-6 hapten | worked as well as, and possibly better than, MH-6 |  |
| TT: tetanus toxoid scaffold protein |  |  | potent immune responses |
